Test results published in ChEMBL document CHEMBL1201862, “PubChem BioAssay data set” (2004).
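Protocol summary: plate cells (96-well), add compound at 5 concentrations, incubate 48 h, interpolate endpoints linearly. Here, GI50 denotes the concentration required for 50% inhibition of growth.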 Calls of active or inactive are those of the source. Rule as the data show it: active = GI50 up to about 1.1 µM and inactive = higher.

Columns and labels:
Assay in all cases: NCI anticancer screen, dose series, 48 h
BT-549 = system: BT-549
OVCAR-4 = system: OVCAR-4
TK-10 = system: TK-10
U-251 = system: U-251
MDA-MB-435 = system: MDA-MB-435
NCI-H23 = system: NCI-H23
NCI/ADR-RES = system: NCI/ADR-RES
SK-MEL-5 = system: SK-MEL-5
HCC 2998 = system: HCC 2998
UACC-257 = system: UACC-257
K562 = system: K562
PC-3 = system: PC-3
SR = system: SR
LOX IMVI = system: LOX IMVI
HCT-116 = system: HCT-116
Malme-3M = system: Malme-3M
MCF7 = system: MCF7
SK-MEL-2 = system: SK-MEL-2
T47D = system: T47D

| SMILES | GI50 (BT-549) | GI50 (OVCAR-4) | GI50 (TK-10) | GI50 (U-251) | GI50 (MDA-MB-435) | GI50 (NCI-H23) | GI50 (NCI/ADR-RES) | GI50 (SK-MEL-5) | GI50 (HCC 2998) | GI50 (UACC-257) | GI50 (K562) | GI50 (PC-3) | GI50 (SR) | GI50 (LOX IMVI) | GI50 (HCT-116) | GI50 (Malme-3M) | GI50 (MCF7) | GI50 (SK-MEL-2) | GI50 (T47D) |
| --- | --- | --- | --- | --- | --- | --- | --- | --- | --- | --- | --- | --- | --- | --- | --- | --- | --- | --- | --- |
| Oc1c2c(nc3cc4c(cc13)OCO4)-c1ccccc1CCC2 | > 50 µM (inactive) | 30.2 µM (inactive) | > 50 µM (inactive) | > 50 µM (inactive) | 23.7 µM (inactive) | > 50 µM (inactive) | > 50 µM (inactive) | 45.6 µM (inactive) | > 50 µM (inactive) | > 50 µM (inactive) | > 50 µM (inactive) | > 50 µM (inactive) | 12.3 µM (inactive) | 43.3 µM (inactive) | 28.1 µM (inactive) | > 50 µM (inactive) | 26.5 µM (inactive) |  |  |
| O=C1NC(=O)c2ccc([N+](=O)[O-])c3cccc1c23 | 19.2 µM (inactive) | 20 µM (inactive) | 19.6 µM (inactive) | 15.4 µM (inactive) | 16.4 µM (inactive) | 17.1 µM (inactive) |  | 18.9 µM (inactive) | 24.7 µM (inactive) | 16.9 µM (inactive) | 10.9 µM (inactive) | 17.4 µM (inactive) |  |  | 11.7 µM (inactive) |  | 11.2 µM (inactive) | 32.3 µM (inactive) | 18.6 µM (inactive) |
| CCN(CC)c1ccc2cc(-c3nnc(-c4ccccc4)[nH]3)c(=O)oc2c1 | 25.2 µM (inactive) | 7.36 µM (inactive) |  | 15 µM (inactive) | 41.9 µM (inactive) | 6.49 µM (inactive) | 21.7 µM (inactive) | > 100 µM (inactive) | > 100 µM (inactive) | > 100 µM (inactive) | > 100 µM (inactive) | 14.9 µM (inactive) | 70.5 µM (inactive) | 94.4 µM (inactive) | 35.8 µM (inactive) | 83 µM (inactive) | > 100 µM (inactive) | 33 µM (inactive) |  |
| N#CC(c1ccccn1)c1nc2ccccc2[nH]1 (stereo not given) |  | 81.1 µM (inactive) | > 100 µM (inactive) | > 100 µM (inactive) |  | > 100 µM (inactive) |  | > 100 µM (inactive) | > 100 µM (inactive) | > 100 µM (inactive) | > 100 µM (inactive) |  | 38.5 µM (inactive) |  | 98.4 µM (inactive) | > 100 µM (inactive) |  | > 100 µM (inactive) |  |
| C/C(=C\CNc1ncnc2c1ncn2CCC#N)CO |  | > 100 µM (inactive) | > 100 µM (inactive) |  | > 100 µM (inactive) | > 100 µM (inactive) | > 100 µM (inactive) | > 100 µM (inactive) | > 100 µM (inactive) | > 100 µM (inactive) | > 100 µM (inactive) | > 100 µM (inactive) | > 100 µM (inactive) | > 100 µM (inactive) | > 100 µM (inactive) | > 100 µM (inactive) | > 100 µM (inactive) |  | > 100 µM (inactive) |
| CC(=O)OC1[C@H](n2ccnc2)C[C@H]2[C@@H]3CC=C4CC(N5CCCC5)CC[C@]4(C)[C@H]3CC[C@]12C (stereo not given in full) |  | 87.3 µM (inactive) | 88.1 µM (inactive) | 55.3 µM (inactive) | 23.8 µM (inactive) | 60.3 µM (inactive) | > 100 µM (inactive) | 33 µM (inactive) |  | 18.8 µM (inactive) | 17.1 µM (inactive) | 34.4 µM (inactive) | 12 µM (inactive) | 10.1 µM (inactive) | 21 µM (inactive) |  | 33.9 µM (inactive) | 20.3 µM (inactive) |  |
| O=[N+]([O-])c1c2nc3n(c2cc2c1nc1n2CCC1)CCC3 |  | > 100 µM (inactive) | > 100 µM (inactive) | > 100 µM (inactive) | > 100 µM (inactive) | > 100 µM (inactive) | > 100 µM (inactive) | > 100 µM (inactive) | > 100 µM (inactive) | > 100 µM (inactive) | > 100 µM (inactive) | > 100 µM (inactive) | > 100 µM (inactive) | > 100 µM (inactive) | > 100 µM (inactive) | 93.1 µM (inactive) | > 100 µM (inactive) |  | > 100 µM (inactive) |
| N#CC(c1ccccc1)c1cccc2ccccc12 (stereo not given) |  | 47.5 µM (inactive) | 42.4 µM (inactive) | 48.9 µM (inactive) | 20.2 µM (inactive) | 42.1 µM (inactive) | 39.8 µM (inactive) | 18.2 µM (inactive) | 36.7 µM (inactive) | 24.4 µM (inactive) | 26 µM (inactive) | 22.5 µM (inactive) | 12.3 µM (inactive) | 21.3 µM (inactive) | 65 µM (inactive) | 21.5 µM (inactive) | 33.6 µM (inactive) | 25.6 µM (inactive) | 38.5 µM (inactive) |
| COc1ccc(/C=N/N=C(\N)NO)c(Cl)c1O |  | 15.8 µM (inactive) |  | 26.8 µM (inactive) |  | 23.7 µM (inactive) |  | 5.11 µM (inactive) | 14.6 µM (inactive) | 20.2 µM (inactive) | 3.63 µM (inactive) |  |  | 3.1 µM (inactive) | 15.2 µM (inactive) | 28.4 µM (inactive) |  | 14.2 µM (inactive) |  |
| Cn1c(C(C#N)c2cc(Cl)ncn2)nc2ccccc21 (stereo not given) | > 100 µM (inactive) | > 100 µM (inactive) | > 100 µM (inactive) | > 100 µM (inactive) | > 100 µM (inactive) | > 100 µM (inactive) | > 100 µM (inactive) | > 100 µM (inactive) |  | > 100 µM (inactive) |  |  |  | > 100 µM (inactive) | > 100 µM (inactive) | > 100 µM (inactive) |  |  | > 100 µM (inactive) |
| COc1cc([C@@H]2c3cc4c(cc3[C@@H](Nc3ccccc3C(=O)c3ccccc3)[C@H]3COC(=O)[C@H]23)OCO4)cc(OC)c1OC |  | > 27.2 µM (inactive) | > 100 µM (inactive) | 0.362 µM (active) | 0.27 µM (active) | 0.668 µM (active) | 0.479 µM (active) | 0.475 µM (active) | 2.36 µM (inactive) | 0.933 µM (active) | 0.35 µM (active) | 0.622 µM (active) | 0.332 µM (active) | 0.313 µM (active) | 0.321 µM (active) | 0.458 µM (active) | 0.379 µM (active) | > 100 µM (inactive) | > 100 µM (inactive) |
| O=P(O)(O)c1ccc(-c2ccc(I)cc2)cc1 | > 100 µM (inactive) | > 100 µM (inactive) | > 100 µM (inactive) | > 100 µM (inactive) |  | > 100 µM (inactive) | > 100 µM (inactive) | > 100 µM (inactive) | > 100 µM (inactive) | > 100 µM (inactive) | > 100 µM (inactive) | > 100 µM (inactive) | > 100 µM (inactive) | > 100 µM (inactive) | > 100 µM (inactive) | > 100 µM (inactive) | > 100 µM (inactive) | > 100 µM (inactive) | > 100 µM (inactive) |
| COC(=O)C(Nc1ccc(OC)cc1)c1ccccc1 (stereo not given) |  |  | > 100 µM (inactive) |  | > 100 µM (inactive) | > 100 µM (inactive) | 74.1 µM (inactive) | > 100 µM (inactive) |  | > 100 µM (inactive) | > 100 µM (inactive) | > 100 µM (inactive) | > 100 µM (inactive) | > 100 µM (inactive) | > 100 µM (inactive) |  | > 100 µM (inactive) | > 100 µM (inactive) | > 100 µM (inactive) |
| Nc1ncnc2c1ncn2C1OC(CO)=CC1O (stereo not given) |  | > 37.5 µM (inactive) | > 37.5 µM (inactive) | > 37.5 µM (inactive) | > 37.5 µM (inactive) | > 37.5 µM (inactive) | > 37.5 µM (inactive) | > 37.5 µM (inactive) | > 37.5 µM (inactive) | > 37.5 µM (inactive) | > 37.5 µM (inactive) | > 37.5 µM (inactive) | > 37.5 µM (inactive) | > 37.5 µM (inactive) | > 37.5 µM (inactive) | > 37.5 µM (inactive) | > 37.5 µM (inactive) | > 37.5 µM (inactive) | > 37.5 µM (inactive) |
| Cc1cc(C[C@H]2O[C@@H]3OC(C)(C)O[C@@H]3[C@H]3OC(C)(C)O[C@H]32)c2ccccc2n1 |  | > 100 µM (inactive) | > 100 µM (inactive) | > 100 µM (inactive) | > 100 µM (inactive) | 52.7 µM (inactive) | 34 µM (inactive) | 55.6 µM (inactive) | > 100 µM (inactive) | > 100 µM (inactive) | 48.1 µM (inactive) | 40.1 µM (inactive) | 34.8 µM (inactive) | > 100 µM (inactive) | 72.6 µM (inactive) | 64.9 µM (inactive) |  | 36 µM (inactive) | 63.5 µM (inactive) |
| COc1cc(/C=C2\CCC/C(=C\c3ccc(OC(=O)CCCCC4CCSS4)c(OC)c3)C2=O)ccc1OC(=O)CCCCC1CCSS1 (stereo not given) | > 100 µM (inactive) | > 100 µM (inactive) | > 100 µM (inactive) | > 100 µM (inactive) | > 100 µM (inactive) | > 100 µM (inactive) | > 100 µM (inactive) | > 100 µM (inactive) |  | > 100 µM (inactive) | > 100 µM (inactive) | > 100 µM (inactive) |  | > 100 µM (inactive) | > 100 µM (inactive) | > 100 µM (inactive) | > 100 µM (inactive) | > 100 µM (inactive) |  |
| CCC[C@H]1C(=O)N=C(N)N1C(=O)OCc1ccccc1 | > 100 µM (inactive) | > 100 µM (inactive) | > 100 µM (inactive) | > 100 µM (inactive) | > 100 µM (inactive) | > 100 µM (inactive) | > 100 µM (inactive) | > 100 µM (inactive) | > 100 µM (inactive) | > 100 µM (inactive) | > 100 µM (inactive) | > 100 µM (inactive) | > 100 µM (inactive) | > 100 µM (inactive) | > 100 µM (inactive) | > 100 µM (inactive) | > 100 µM (inactive) | > 100 µM (inactive) |  |
